Data from ChEMBL document CHEMBL4396887, “Five-Membered N-Heterocyclic Scaffolds as Novel Amino Bioisosteres at γ-Aminobutyric Acid (GABA) Type A Receptors and GABA Transporters” (J Med Chem, 2019).
Activity calls are given as the source filed them. No cut-off for these calls is given here.

What was measured:
[1] = target: GABA-A receptor; anion channel; assay: Displacement of [3H]muscimol from GABA(A) receptor in Sprague-Dawley rat cortical synaptic membranes by liquid scintillation counting
[2] = target: Gamma-aminobutyric acid receptor subunit alpha-4/beta-2/gamma-2 (Homo sapiens, UniProt P47870+P18507+P48169); assay: Agonist activity at recombinant human GABA-A alpha4beta2gamma2S receptor transiently expressed in human tsA201 cells incubated for 30 mins and measured up to 90 secs by FMP dye based FLIPR membrane potential blue assay; format: cell-based
Sequence of Gamma-aminobutyric acid receptor subunit alpha-4/beta-2/gamma-2 (P47870 whole entry): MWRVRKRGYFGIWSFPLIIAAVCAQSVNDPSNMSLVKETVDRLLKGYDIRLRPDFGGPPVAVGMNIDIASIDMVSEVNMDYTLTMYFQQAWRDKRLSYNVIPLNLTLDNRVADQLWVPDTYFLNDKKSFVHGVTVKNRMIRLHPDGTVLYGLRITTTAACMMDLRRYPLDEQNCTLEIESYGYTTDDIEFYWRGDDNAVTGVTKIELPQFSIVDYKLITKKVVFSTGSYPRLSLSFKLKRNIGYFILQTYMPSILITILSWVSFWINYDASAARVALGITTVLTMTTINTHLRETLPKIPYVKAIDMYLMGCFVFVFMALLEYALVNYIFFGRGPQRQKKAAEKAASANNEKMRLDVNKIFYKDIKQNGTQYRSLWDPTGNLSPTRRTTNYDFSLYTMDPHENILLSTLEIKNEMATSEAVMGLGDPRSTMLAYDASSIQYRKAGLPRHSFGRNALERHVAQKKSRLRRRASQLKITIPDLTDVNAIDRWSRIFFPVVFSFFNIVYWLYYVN
Sequence of Gamma-aminobutyric acid receptor subunit alpha-4/beta-2/gamma-2 (P18507 whole entry): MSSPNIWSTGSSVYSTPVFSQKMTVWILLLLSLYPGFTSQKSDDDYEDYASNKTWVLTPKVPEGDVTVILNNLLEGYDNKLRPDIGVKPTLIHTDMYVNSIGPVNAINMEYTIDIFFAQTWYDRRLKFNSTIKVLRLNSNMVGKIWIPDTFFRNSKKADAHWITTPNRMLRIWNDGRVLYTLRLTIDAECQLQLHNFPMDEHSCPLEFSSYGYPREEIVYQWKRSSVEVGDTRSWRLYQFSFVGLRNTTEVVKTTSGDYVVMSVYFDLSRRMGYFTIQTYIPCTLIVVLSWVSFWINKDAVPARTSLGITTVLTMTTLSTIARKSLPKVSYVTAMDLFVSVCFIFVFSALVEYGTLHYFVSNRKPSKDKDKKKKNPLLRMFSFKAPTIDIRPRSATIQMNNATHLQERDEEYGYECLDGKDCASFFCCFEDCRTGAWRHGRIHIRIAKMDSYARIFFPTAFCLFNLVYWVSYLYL
Sequence of Gamma-aminobutyric acid receptor subunit alpha-4/beta-2/gamma-2 (P48169 whole entry): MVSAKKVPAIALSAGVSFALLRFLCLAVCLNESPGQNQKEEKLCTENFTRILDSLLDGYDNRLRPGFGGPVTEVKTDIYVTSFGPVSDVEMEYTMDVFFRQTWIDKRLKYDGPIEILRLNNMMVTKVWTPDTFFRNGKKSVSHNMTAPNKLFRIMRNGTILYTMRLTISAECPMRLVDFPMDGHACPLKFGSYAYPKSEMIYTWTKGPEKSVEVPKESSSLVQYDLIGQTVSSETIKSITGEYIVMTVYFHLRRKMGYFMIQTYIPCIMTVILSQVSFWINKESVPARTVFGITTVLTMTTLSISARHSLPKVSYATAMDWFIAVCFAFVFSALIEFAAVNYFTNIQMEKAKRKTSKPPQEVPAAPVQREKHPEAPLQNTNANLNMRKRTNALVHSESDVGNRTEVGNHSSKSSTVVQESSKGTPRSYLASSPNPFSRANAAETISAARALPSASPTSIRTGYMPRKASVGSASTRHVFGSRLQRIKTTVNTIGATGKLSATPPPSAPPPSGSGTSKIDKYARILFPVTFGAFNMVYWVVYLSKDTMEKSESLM

[3] = target: T1, Sodium- and chloride-dependent GABA transporter 2 (Homo sapiens, UniProt Q9NSD5); assay: Inhibition of human GAT2 expressed in Flp-In CHO cells assessed as reduction in [3H]GABA uptake incubated for 3 mins by liquid scintillation counting method; format: cell-based
T1 sequence (Q9NSD5 whole entry): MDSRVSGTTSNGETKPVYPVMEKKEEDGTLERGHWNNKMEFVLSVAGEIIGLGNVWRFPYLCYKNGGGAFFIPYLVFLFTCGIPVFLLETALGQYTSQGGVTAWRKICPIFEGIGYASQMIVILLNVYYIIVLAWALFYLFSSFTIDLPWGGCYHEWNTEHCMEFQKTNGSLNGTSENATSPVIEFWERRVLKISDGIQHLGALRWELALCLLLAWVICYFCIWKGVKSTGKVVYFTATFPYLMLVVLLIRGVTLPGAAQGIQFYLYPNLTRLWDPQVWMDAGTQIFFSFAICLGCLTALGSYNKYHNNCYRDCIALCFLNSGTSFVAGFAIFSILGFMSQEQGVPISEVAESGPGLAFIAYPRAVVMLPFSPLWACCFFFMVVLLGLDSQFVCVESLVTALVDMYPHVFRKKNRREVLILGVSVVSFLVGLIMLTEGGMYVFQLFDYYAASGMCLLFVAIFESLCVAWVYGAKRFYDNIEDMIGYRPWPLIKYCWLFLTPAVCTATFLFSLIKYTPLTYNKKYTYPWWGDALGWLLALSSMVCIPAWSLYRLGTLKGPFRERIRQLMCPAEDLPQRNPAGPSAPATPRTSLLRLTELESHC

[4] = target: T2, Sodium- and chloride-dependent betaine transporter (Homo sapiens, UniProt P48065); assay: Inhibition of human BGT1 expressed in Flp-In CHO cells assessed as reduction in [3H]GABA uptake incubated for 3 mins by liquid scintillation counting method; format: cell-based
T2 sequence (P48065 whole entry): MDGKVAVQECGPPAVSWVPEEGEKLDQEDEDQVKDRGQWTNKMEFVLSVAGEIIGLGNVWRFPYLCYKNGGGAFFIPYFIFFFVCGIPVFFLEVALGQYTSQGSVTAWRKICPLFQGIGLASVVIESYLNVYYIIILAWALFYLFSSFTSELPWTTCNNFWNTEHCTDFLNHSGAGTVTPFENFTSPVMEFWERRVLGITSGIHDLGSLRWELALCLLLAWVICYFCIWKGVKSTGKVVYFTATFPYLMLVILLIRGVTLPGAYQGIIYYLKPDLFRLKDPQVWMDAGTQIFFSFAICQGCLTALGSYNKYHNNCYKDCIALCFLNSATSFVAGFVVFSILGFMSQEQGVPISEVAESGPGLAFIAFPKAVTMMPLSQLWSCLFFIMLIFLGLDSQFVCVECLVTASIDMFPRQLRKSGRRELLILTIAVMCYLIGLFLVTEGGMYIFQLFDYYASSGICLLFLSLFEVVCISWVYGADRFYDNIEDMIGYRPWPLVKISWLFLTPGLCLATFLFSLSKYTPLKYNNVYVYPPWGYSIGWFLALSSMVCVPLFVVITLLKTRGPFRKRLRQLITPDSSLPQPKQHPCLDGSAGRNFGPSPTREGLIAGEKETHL

[5] = target: GABA-A receptor; alpha-1/beta-2/gamma-2 (Homo sapiens) (UniProt P14867+P47870+P18507); assay: Agonist activity at recombinant human GABA-A alpha1beta2gamma2S receptor transiently expressed in human tsA201 cells assessed as GABA-induced maximum response incubated for 30 mins and measured up to 90 secs by FMP dye based FLIPR membrane potential blue assay relative to GABA; format: cell-based
[6] = cells; format: cell-based; details: Homo sapiens, tsA201, 0.5 h
[7] = species on record: Homo sapiens; assay: Agonist activity at recombinant human GABA-A alpha3beta2gamma2S receptor transiently expressed in human tsA201 cells assessed as GABA-induced maximum response incubated for 30 mins and measured up to 90 secs by FMP dye based FLIPR membrane potential blue assay relative to GABA; format: cell-based
[8] = target: Gamma-aminobutyric acid receptor subunit alpha-5/beta-2/gamma-2 (Homo sapiens) (UniProt P47870+P18507+P31644); assay: Agonist activity at recombinant human GABA-A alpha5beta2gamma2S receptor transiently expressed in human tsA201 cells assessed as GABA-induced maximum response incubated for 30 mins and measured up to 90 secs by FMP dye based FLIPR membrane potential blue assay relative to GABA; format: cell-based
[9] = target: Gamma-aminobutyric acid receptor subunit rho-1 (Homo sapiens, UniProt P24046); assay: Agonist activity at recombinant human GABA-A rho-1 receptor transiently expressed in human tsA201 cells assessed as GABA-induced maximum response incubated for 30 mins and measured up to 90 secs by FMP dye based FLIPR membrane potential blue assay relative to GABA; format: cell-based
Sequence of Gamma-aminobutyric acid receptor subunit rho-1 (P24046 whole entry): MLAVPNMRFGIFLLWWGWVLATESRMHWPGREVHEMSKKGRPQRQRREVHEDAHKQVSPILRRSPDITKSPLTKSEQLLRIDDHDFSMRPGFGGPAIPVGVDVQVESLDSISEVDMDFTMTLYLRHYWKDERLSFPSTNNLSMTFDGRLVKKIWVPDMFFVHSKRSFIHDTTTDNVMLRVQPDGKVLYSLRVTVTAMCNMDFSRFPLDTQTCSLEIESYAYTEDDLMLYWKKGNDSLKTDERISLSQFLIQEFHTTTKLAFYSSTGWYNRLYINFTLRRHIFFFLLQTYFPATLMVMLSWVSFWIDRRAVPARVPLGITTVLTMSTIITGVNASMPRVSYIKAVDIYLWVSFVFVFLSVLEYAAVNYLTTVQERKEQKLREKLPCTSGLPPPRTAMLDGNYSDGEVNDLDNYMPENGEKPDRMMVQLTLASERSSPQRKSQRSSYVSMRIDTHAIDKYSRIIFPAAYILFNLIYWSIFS

[10] = target: Sodium- and chloride-dependent GABA transporter 1 (Homo sapiens, UniProt P30531); assay: Inhibition of human GAT1 expressed in Flp-In CHO cells assessed as reduction in [3H]GABA uptake at 100 uM incubated for 3 mins by liquid scintillation counting method relative to control; format: cell-based
Sequence of Sodium- and chloride-dependent GABA transporter 1 (P30531 whole entry, looked up): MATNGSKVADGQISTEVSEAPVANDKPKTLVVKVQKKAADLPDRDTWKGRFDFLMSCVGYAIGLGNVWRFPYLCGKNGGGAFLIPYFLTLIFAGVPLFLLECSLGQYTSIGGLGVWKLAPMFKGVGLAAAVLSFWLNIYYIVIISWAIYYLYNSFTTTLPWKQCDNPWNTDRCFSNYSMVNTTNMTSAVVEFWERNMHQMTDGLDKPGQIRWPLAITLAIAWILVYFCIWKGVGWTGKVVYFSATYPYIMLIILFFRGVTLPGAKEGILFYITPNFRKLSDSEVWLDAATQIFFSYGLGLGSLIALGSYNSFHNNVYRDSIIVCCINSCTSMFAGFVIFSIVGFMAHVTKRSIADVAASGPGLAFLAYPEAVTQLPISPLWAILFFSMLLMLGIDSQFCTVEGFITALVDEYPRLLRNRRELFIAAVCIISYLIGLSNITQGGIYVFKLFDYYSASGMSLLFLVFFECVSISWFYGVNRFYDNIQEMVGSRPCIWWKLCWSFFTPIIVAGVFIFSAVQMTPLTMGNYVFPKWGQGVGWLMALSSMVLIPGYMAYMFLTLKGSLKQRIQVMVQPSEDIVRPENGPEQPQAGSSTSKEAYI

[11] = target: T3, Sodium- and chloride-dependent betaine transporter (Homo sapiens) (UniProt P48065); assay: Inhibition of human BGT1 expressed in Flp-In CHO cells assessed as reduction in [3H]GABA uptake at 100 uM incubated for 3 mins by liquid scintillation counting method relative to control; format: cell-based
T3 sequence (whole entry): T2 sequence (P48065 whole entry)

Row | SMILES | Ki [1] [µM] | pKi [1] | EC50 [2] | IC50 [3] [µM] | IC50 ([4]; read-out: IC50) [µM] | Rmax [5] | EC50 ([6]; read-out: EC50) [µM] | EC50 ([6]; read-out: pEC50 (converted)) [µM] | Rmax [8] [%] | Rmax [9] | inhibition [10] [%] | inhibition [11] [%] | pEC50 [2] | IC50 ([4]; read-out: pIC50 (converted)) [µM] | Rmax [7]
1 | CC(C(=O)O)C1CSC(N)=N1 (stereo in doubt; l-10b) | 1.3 | 5.91 | Not Active | > 100 | > 100 |  |  |  |  |  |  |  |  |  | 
2 | C[C@@H]1SC(N)=N[C@@H]1CC(=O)O (relative stereo) | 5.5 |  | Not Active | > 100 | > 100 | inactive | 54 | 55 | 92 |  | > 30 | > 30 | inactive |  | 76%
3 | O=C(O)C[C@@H]1CCNC1 | 5.6 |  | Not Active | 16 | 5 | inactive |  |  | 86 | inactive | > 30 | > 30 | inactive | 3.98 | inactive
4 | C[C@@H](C(=O)O)[C@H]1CSC(N)=N1 (relative stereo) | 1.6 |  | Not Active | > 100 | > 100 | 59% | 17 | 16.6 | 94 |  | > 30 | > 30 | inactive |  | 96%
5 | C[C@H]1SC(N)=N[C@@H]1CC(=O)O (relative stereo) | 12 | 4.96 | Not Active | > 100 | > 100 | inactive |  |  | 90 | inactive | > 30 | > 30 | inactive |  | inactive

The next compounds have a lower Ki [1] than those just listed; values first:

Row | Ki [1] [µM] | pKi [1] | EC50 [2] | IC50 [3] [µM] | IC50 ([4]; read-out: IC50) [µM] | Rmax [5] | EC50 ([6]; read-out: EC50) [µM] | EC50 ([6]; read-out: pEC50 (converted)) [µM] | Rmax [8] [%] | Rmax [9] | inhibition [10] [%] | inhibition [11] [%] | pEC50 [2] | IC50 ([4]; read-out: pIC50 (converted)) [µM] | SMILES | Rmax [7]
6 | 0.45 | 6.37 |  | 132 | 3 | 81% | 12 | 11.5 | 90 | 64% | > 30 | > 30 |  |  | NC1=NC(CC(=O)O)CN1 (configuration not stated) | 105%
7 | 0.33 |  |  | > 100 | > 100 |  | 30 | 30.2 |  |  |  |  |  |  | CC(C(=O)O)C1CSC(N)=N1 (stereo in doubt; l-10a) | 
8 | 0.29 |  | Not Active | > 100 | > 100 | 22% | 36 | 35.5 | 81 | 35% | > 30 | > 30 | inactive |  | C[C@@H](C(=O)O)[C@@H]1CSC(N)=N1 (relative stereo) | 19%
9 | 0.21 |  |  | 7.3 | 9.9 | 93% | 5.6 | 5.62 | 99 | 101% | > 30 | > 30 |  | 7.94 | O=C(O)C[C@H]1CCNC1 | 102%
10 | 0.11 |  |  | 79.1 | 47.4 | 86% | 1.1 | 1.1 | 98 | 43% | > 30 | > 30 |  |  | NC1=NC(CC(=O)O)CS1 (configuration not stated) | 95%
11 | 0.09 |  |  | 2.9 | 7.3 | 1% | 5.4 | 5.37 | 88 | 45% | > 30 | > 30 |  |  | O=C(O)CC1CNC=N1 (configuration not stated) | 91%
